{
  "source": "patent US9802921B2",
  "about": "“Fluoromethyl-substituted pyrrole carboxamides iv” (Grünenthal GmbH, priority 2013, dated 2017)",
  "biological_target": "T1, Human CaV2.2 channels (Homo sapiens, UniProt Q00975)",
  "T1 construct": "expressed in transfected cells",
  "T1 sequence (Q00975 whole entry)": "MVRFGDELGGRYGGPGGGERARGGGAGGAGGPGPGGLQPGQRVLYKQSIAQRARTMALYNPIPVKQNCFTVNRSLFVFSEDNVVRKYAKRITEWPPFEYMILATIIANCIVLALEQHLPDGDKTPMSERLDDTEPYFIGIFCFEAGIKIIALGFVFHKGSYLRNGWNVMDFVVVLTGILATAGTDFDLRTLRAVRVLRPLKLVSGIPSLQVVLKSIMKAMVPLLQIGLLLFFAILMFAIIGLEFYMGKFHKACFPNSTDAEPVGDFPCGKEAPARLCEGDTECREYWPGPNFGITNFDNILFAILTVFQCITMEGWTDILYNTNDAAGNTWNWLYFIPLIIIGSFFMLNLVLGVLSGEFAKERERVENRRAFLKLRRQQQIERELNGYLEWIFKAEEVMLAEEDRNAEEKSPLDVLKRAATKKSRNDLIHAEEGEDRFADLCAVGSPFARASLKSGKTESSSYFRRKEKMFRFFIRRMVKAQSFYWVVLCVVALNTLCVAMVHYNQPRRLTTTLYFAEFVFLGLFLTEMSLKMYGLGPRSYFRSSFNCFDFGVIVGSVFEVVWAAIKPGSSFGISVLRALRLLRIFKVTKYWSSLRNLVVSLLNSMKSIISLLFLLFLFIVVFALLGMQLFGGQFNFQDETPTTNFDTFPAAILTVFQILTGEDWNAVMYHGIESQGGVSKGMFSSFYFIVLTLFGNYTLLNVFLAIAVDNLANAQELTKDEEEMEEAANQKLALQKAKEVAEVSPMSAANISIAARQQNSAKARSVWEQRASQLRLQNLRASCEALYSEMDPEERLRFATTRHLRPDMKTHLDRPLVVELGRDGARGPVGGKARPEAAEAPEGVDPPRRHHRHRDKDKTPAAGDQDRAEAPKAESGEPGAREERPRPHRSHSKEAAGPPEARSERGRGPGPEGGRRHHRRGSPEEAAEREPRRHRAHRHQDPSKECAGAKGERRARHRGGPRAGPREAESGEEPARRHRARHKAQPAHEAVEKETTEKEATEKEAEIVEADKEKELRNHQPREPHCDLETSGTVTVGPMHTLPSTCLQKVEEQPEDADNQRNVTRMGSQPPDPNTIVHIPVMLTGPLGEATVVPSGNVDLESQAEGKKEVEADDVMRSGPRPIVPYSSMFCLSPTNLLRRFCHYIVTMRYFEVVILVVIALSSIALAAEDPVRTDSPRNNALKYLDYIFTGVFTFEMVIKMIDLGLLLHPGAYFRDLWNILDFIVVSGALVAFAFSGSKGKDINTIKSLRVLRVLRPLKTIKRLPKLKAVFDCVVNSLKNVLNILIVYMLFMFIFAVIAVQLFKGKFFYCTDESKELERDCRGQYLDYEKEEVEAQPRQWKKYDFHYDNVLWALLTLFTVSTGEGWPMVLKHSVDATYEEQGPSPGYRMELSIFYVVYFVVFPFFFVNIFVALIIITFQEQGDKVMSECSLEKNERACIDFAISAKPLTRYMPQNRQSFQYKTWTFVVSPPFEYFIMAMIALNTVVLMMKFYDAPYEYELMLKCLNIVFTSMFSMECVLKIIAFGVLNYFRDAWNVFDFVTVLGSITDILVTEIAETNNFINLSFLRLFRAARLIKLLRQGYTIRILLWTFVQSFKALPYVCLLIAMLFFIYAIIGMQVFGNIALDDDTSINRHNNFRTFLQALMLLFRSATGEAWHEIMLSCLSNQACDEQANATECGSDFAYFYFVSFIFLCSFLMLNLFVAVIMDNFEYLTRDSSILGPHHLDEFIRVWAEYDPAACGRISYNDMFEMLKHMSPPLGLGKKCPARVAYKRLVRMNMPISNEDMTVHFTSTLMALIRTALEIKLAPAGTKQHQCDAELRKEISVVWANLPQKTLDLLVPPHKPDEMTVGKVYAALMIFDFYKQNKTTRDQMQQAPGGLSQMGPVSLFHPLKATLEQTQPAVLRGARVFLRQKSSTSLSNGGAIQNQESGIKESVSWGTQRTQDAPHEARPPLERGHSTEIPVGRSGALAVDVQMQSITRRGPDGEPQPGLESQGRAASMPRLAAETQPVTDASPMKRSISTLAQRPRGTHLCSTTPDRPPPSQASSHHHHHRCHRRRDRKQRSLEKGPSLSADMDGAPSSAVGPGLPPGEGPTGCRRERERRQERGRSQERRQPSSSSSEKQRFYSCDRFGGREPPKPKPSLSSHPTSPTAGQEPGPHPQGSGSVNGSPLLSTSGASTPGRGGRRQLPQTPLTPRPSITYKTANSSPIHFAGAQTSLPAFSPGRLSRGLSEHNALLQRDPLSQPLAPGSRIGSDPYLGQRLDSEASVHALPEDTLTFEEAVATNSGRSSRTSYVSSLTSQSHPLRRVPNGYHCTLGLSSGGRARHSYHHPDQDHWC",
  "T1 sequence (P54289 25-1103, further chain)": "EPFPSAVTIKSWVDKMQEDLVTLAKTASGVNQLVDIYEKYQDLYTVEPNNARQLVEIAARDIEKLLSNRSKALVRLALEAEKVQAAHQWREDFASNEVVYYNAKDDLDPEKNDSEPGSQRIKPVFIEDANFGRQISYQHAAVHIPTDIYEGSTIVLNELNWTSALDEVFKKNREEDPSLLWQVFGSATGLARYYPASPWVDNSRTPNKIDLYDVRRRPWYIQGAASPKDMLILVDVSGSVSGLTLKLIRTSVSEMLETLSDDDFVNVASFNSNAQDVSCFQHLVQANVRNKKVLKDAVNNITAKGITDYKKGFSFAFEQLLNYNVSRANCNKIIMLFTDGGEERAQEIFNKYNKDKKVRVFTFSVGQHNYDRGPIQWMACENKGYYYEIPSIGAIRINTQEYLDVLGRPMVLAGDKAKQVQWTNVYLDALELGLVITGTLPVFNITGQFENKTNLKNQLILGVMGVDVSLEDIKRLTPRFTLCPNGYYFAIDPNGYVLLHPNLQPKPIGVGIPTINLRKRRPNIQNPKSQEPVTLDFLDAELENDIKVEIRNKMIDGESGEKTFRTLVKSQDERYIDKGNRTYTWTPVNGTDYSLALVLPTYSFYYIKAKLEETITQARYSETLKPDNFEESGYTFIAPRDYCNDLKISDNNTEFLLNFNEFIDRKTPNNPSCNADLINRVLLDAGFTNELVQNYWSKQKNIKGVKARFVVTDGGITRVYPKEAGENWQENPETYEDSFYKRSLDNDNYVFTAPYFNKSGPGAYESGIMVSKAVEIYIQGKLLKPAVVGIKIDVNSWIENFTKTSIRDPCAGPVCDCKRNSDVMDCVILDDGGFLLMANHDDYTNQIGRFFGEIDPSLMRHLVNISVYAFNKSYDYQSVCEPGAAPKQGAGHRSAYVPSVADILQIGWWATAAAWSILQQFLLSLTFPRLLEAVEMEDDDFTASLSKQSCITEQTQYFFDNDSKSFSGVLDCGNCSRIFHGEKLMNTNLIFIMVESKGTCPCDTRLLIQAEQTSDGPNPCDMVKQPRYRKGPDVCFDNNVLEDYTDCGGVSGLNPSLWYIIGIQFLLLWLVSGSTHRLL",
  "T1 sequence (P54284 whole entry, further chain)": "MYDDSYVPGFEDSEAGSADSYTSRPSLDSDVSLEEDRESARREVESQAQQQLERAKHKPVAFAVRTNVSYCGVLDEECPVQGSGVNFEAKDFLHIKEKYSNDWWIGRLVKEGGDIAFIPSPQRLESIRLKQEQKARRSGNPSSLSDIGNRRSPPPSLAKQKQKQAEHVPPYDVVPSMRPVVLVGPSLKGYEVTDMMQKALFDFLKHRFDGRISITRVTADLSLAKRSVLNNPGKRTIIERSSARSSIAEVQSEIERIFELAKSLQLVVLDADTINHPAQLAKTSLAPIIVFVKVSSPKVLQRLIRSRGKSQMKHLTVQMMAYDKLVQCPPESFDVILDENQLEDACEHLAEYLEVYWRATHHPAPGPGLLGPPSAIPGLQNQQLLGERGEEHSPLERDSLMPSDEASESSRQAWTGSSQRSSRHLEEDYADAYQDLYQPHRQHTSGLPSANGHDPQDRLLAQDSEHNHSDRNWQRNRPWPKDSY",
  "assay": "Fluorescent assay for CaV2.2 channels using potassium depolarization to induce channel opening (FLIPR, Fluo 4)",
  "assay_type": "cell-based",
  "conditions": "read-out: Activity Category: %-Inhib (CaV2.2) @3 μM @30 mM KCl; 3 μM test compound; 30 mM KCl as printed; HEK293 cells stably expressing human CaV2.2",
  "text": "In the process, the Ca^2+ influx is quantified in the FLIPR assay with the aid of a Ca^2+-sensitive dye (type Fluo-4, Molecular Probes Europe BV, Leiden, the Netherlands) in a fluorescent imaging plate reader (FLIPR 3, Molecular Devices, Sunnyvale, USA), as described hereinafter.\nHuman CaV2.2 channels were stably expressed in HEK293 cells together with alpha2-delta and beta subunits of voltage gated calcium channels. In addition, an inwardly rectifying potassium channel (Kir2.3) was stably expressed in these cells to augment control of the cell membrane potential by the concentration of extracellular potassium ions. Raise of the extracellular potassium concentration leads to depolarization of the membrane potential and thus regulates the voltage dependent state of CaV2.2 channels. For preparation, cells were seeded in black poly-D-lysine coated 96-well plates (Becton Dickinson, Biocoat 4640) in 100 μL medium [500 mL DMEM/F-12 plus Glutamax (Invitrogen 31331-093) plus 5.5 mL MEM NEAA 100× (Invitrogen 11140-035) plus 50 mL FBS decomplemented (Invitrogen 10270-106) plus 200 μg/mL Geneticin (Invitrogen 10131-027) plus 50 μg/mL Hygromycin B (Invitrogen 10687-010) plus 2 μg/mL Blasticidin (anti-bl5b Invivo-Gen) plus 0.2 μg/mL Puromycin (A 11138-03)] at a cell density of 30.000 cells per well. Plates were incubated at 37° C. (5% CO2) for 20 to 23 h. On the day of experiment medium was discarded and cells were loaded with Fluo 4 by addition of 100 μL of basic assay buffer (10 mM HEPES, 1 mM KCl, 149 mM NaCl, 0.8 mM CaCl2, 1.7 mM MgCl2, 10 mM Glucose, 0.1% BSA. pH 7.4) containing 2 μM Fluo 4 (Molecular Probes; F-14201), 0.01% pluronic acid (Molecular Probes; P-6866) and 2.5 mM probenecid (Molecular Probes; P36400). Cells were incubated in the dark at 25° C. for 60 min. Then dye containing buffer was discarded and 100 μL basic (1 mM KCl) or alternative (30 mM KCl) assay buffer was added. The alternative assay buffer contained altered concentrations of KCl (30 mM) and NaCl (120 mM) and was used in order to promote the inactivated channel state. After that 25 μL of basic or alternative assay buffer with or without test compound were added and cells were incubated again in the dark at 25° C. for 15 min. Fluorescence intensity was measured on a FLIPR 3 instrument (Molecular Devices Corp., Sunnyvale, Calif.) with excitation at 480 nm and emission at 535 nm. After continuously reading fluorescence for 30 sec, 50 μL of basic assay buffer containing 210 mM KCl (NaCl omitted) were added for depolarization. Peak fluorescent signal intensity was determined and the amplitude of the peak signal, normalized to base line, was used to measure channel inhibition by test compounds.",
  "data": [
    {"molecule": "Cc1c(-c2ccc(Cl)cc2)c(C(=O)N(C)C(C)C)n(Cc2ncccn2)c1C(F)(F)F", "note": "[Example 061, 3-(4-Chlorophenyl)-N-isopropyl-N,4-dimethyl-1-(pyrimidin-2-yl-methyl)-5-(trifluoromethyl)-1H-pyrrole-2-carboxylic acid amide]", "values": [
      {"measurement": "inhibition at 3 µM", "result": "> 95", "unit": "%"}
    ]},
    {"molecule": "CN(CC(C)(C)C)C(=O)c1c(-c2ccc(Cl)cc2)cc(C(F)(F)F)n1Cc1cncn1C", "note": "[Example 026, 3-(4-Chlorophenyl)-N-(2,2-dimethyl-propyl)-N-methyl-1-[(3-methyl-3H-imidazole-4-yl)-methyl]-5-(trifluoromethyl)-1H-pyrrole-2-carboxylic acid amide]", "values": [
      {"measurement": "inhibition at 3 µM", "result": "75 to 95", "unit": "%"}
    ]},
    {"molecule": "Cc1ncc(Cn2c(C(F)(F)F)cc(-c3ccc(Cl)cc3)c2C(=O)N(C)CC(C)(C)C)cn1", "note": "[Example 034, 3-(4-Chlorophenyl)-N-(2,2-dimethyl-propyl)-N-methyl-1-[(2-methyl-pyrimidin-5-yl)-methyl]-5-(trifluoromethyl)-1H-pyrrole-2-carboxylic acid amide]", "values": [
      {"measurement": "inhibition at 3 µM", "result": "75 to 95", "unit": "%"}
    ]},
    {"molecule": "Cc1c(-c2ccc(Cl)cc2)c(C(=O)N2CC(F)(F)C2)n(-c2cnccn2)c1C(F)(F)F", "note": "[Example 050, [3-(4-Chlorophenyl)-4-methyl-1-pyrazin-2-yl-5-(trifluoromethyl)-1H-pyrrol-2-yl]-(3,3-difluoro-azetidin-1-yl)-methanone]", "values": [
      {"measurement": "inhibition at 3 µM", "result": "75 to 95", "unit": "%"}
    ]},
    {"molecule": "Cc1c(-c2ccc(Cl)cc2)c(C(=O)N2CCOCC2)n(Cc2ccc(F)cn2)c1C(F)(F)F", "note": "[Example 044, [3-(4-Chlorophenyl)-1-[(5-fluoro-pyridin-2-yl)-methyl]-4-methyl-5-(trifluoromethyl)-1H-pyrrol-2-yl]-morpholin-4-yl-methanone]", "values": [
      {"measurement": "inhibition at 3 µM", "result": "> 95", "unit": "%"}
    ]},
    {"molecule": "CN(CC(C)(C)C)C(=O)c1c(-c2ccc(Cl)cc2)cc(C(F)(F)F)n1Cc1ccnc(C(F)(F)F)n1", "note": "[Example 033, 3-(4-Chlorophenyl)-N-(2,2-dimethyl-propyl)-N-methyl-5-(trifluoromethyl)-1-[[2-(trifluoromethyl)-pyrimidin-4-yl]-methyl]-1H-pyrrole-2-carboxylic acid amide]", "values": [
      {"measurement": "inhibition at 3 µM", "result": "40 to 75", "unit": "%"}
    ]},
    {"molecule": "Cc1c(-c2ccc(Cl)cc2F)c(C(=O)N(C)C(C)C)n(Cc2ncccn2)c1C(F)(F)F", "note": "[Example 064, 3-(4-Chloro-2-fluoro-phenyl)-N-isopropyl-N,4-dimethyl-1-(pyrimidin-2-yl-methyl)-5-(trifluoromethyl)-1H-pyrrole-2-carboxylic acid amide]", "values": [
      {"measurement": "inhibition at 3 µM", "result": "> 95", "unit": "%"}
    ]},
    {"molecule": "Cc1c(-c2ccc(Cl)cc2)c(C(=O)N(C)CCS(C)(=O)=O)n(Cc2ncccn2)c1C(F)(F)F", "note": "[Example 039, 3-(4-Chlorophenyl)-N,4-dimethyl-N-(2-methylsulfonyl-ethyl)-1-(pyrimidin-2-yl-methyl)-5-(trifluoromethyl)-1H-pyrrole-2-carboxylic acid amide]", "values": [
      {"measurement": "inhibition at 3 µM", "result": "75 to 95", "unit": "%"}
    ]},
    {"molecule": "CN(CC(C)(C)C)C(=O)c1c(-c2ccc(Cl)cc2)cc(C(F)(F)F)n1Cc1nccn1C", "note": "[Example 025, 3-(4-Chlorophenyl)-N-(2,2-dimethyl-propyl)-N-methyl-1-[(1-methyl-1H-imidazole-2-yl)-methyl]-5-(trifluoromethyl)-1H-pyrrole-2-carboxylic acid amide]", "values": [
      {"measurement": "inhibition at 3 µM", "result": "75 to 95", "unit": "%"}
    ]},
    {"molecule": "CN(CC(C)(C)C)C(=O)c1c(-c2ccc(Cl)cc2)cc(C(F)(F)F)n1Cc1ncccn1", "note": "[Example 037, 3-(4-Chlorophenyl)-N-(2,2-dimethyl-propyl)-N-methyl-1-(pyrimidin-2-yl-methyl)-5-(trifluoromethyl)-1H-pyrrole-2-carboxylic acid amide]", "values": [
      {"measurement": "inhibition at 3 µM", "result": "> 95", "unit": "%"}
    ]},
    {"molecule": "Cc1cc(Cn2c(C(=O)N(C)C(C)C)c(-c3ccc(Cl)cc3)c(C)c2C(F)(F)F)on1", "note": "[Example 067, 3-(4-Chlorophenyl)-N-isopropyl-N,4-dimethyl-1-[(3-methyl-isoxazol-5-yl)-methyl]-5-(trifluoromethyl)-1H-pyrrole-2-carboxylic acid amide]", "values": [
      {"measurement": "inhibition at 3 µM", "result": "> 95", "unit": "%"}
    ]},
    {"molecule": "Cc1c(-c2ccc(Cl)cc2)c(C(=O)N(C)CCS(C)(=O)=O)n(Cc2nccn2C)c1C(F)(F)F", "note": "[Example 002, 3-(4-Chlorophenyl)-N,4-dimethyl-1-[(1-methyl-1H-imidazole-2-yl)-methyl]-N-(2-methylsulfonyl-ethyl)-5-(trifluoromethyl)-1H-pyrrole-2-carboxylic acid amide]", "values": [
      {"measurement": "inhibition at 3 µM", "result": "40 to 75", "unit": "%"}
    ]},
    {"molecule": "Cc1c(-c2ccc(Cl)cc2F)c(C(=O)N(C)C2CC2)n(Cc2ncccn2)c1C(F)(F)F", "note": "[Example 063, 3-(4-Chloro-2-fluoro-phenyl)-N-cyclopropyl-N,4-dimethyl-1-(pyrimidin-2-yl-methyl)-5-(trifluoromethyl)-1H-pyrrole-2-carboxylic acid amide]", "values": [
      {"measurement": "inhibition at 3 µM", "result": "> 95", "unit": "%"}
    ]},
    {"molecule": "Cc1cnc(Cn2c(C(=O)N3CCOCC3)c(-c3ccc(Cl)cc3)c(C)c2C(F)(F)F)cn1", "note": "[Example 042, [3-(4-Chlorophenyl)-4-methyl-1-[(5-methyl-pyrazin-2-yl)-methyl]-5-(trifluoromethyl)-1H-pyrrol-2-yl]-morpholin-4-yl-methanone]", "values": [
      {"measurement": "inhibition at 3 µM", "result": "> 95", "unit": "%"}
    ]},
    {"molecule": "CN(CC(C)(C)C)C(=O)c1c(-c2ccc(Cl)cc2)cc(C(F)(F)F)n1Cc1ccnn1C", "note": "[Example 008, 3-(4-Chlorophenyl)-N-(2,2-dimethyl-propyl)-N-methyl-1-[(2-methyl-2H-pyrazol-3-yl)-methyl]-5-(trifluoromethyl)-1H-pyrrole-2-carboxylic acid amide]", "values": [
      {"measurement": "inhibition at 3 µM", "result": "75 to 95", "unit": "%"}
    ]},
    {"molecule": "Cc1ccnc(Cn2c(C(=O)N3CCOCC3)c(-c3ccc(Cl)cc3)c(C)c2C(F)(F)F)n1", "note": "[Example 046, [3-(4-Chlorophenyl)-4-methyl-1-[(4-methyl-pyrimidin-2-yl)-methyl]-5-(trifluoromethyl)-1H-pyrrol-2-yl]-morpholin-4-yl-methanone]", "values": [
      {"measurement": "inhibition at 3 µM", "result": "> 95", "unit": "%"}
    ]},
    {"molecule": "Cc1c(-c2ccc(Cl)cc2)c(C(=O)N2CCOC(C)(C)C2)n(Cc2ncccn2)c1C(F)(F)F", "note": "[Example 040, [3-(4-Chlorophenyl)-4-methyl-1-(pyrimidin-2-yl-methyl)-5-(trifluoromethyl)-1H-pyrrol-2-yl]-(2,2-dimethyl-morpholin-4-yl)-methanone]", "values": [
      {"measurement": "inhibition at 3 µM", "result": "75 to 95", "unit": "%"}
    ]},
    {"molecule": "Cc1c(-c2ccc(Cl)cc2)c(C(=O)N2CCOCC2)n(Cc2ncn[nH]2)c1C(F)(F)F", "note": "[Example 060, [3-(4-Chlorophenyl)-4-methyl-1-(1H-[1,2,4]triazol-3-yl-methyl)-5-(trifluoromethyl)-1H-pyrrol-2-yl]-morpholin-4-yl-methanone]", "values": [
      {"measurement": "inhibition at 3 µM", "result": "40 to 75", "unit": "%"}
    ]},
    {"molecule": "Cc1c(-c2ccc(Cl)cc2)c(C(=O)N2CC(C)(O)C2)n(-c2cnccn2)c1C(F)(F)F", "note": "[Example 051, [3-(4-Chlorophenyl)-4-methyl-1-pyrazin-2-yl-5-(trifluoromethyl)-1H-pyrrol-2-yl]-(3-hydroxy-3-methyl-azetidin-1-yl)-methanone]", "values": [
      {"measurement": "inhibition at 3 µM", "result": "40 to 75", "unit": "%"}
    ]},
    {"molecule": "COc1cccc(Cn2c(C(=O)N3CCOCC3)c(-c3ccc(Cl)cc3)c(C)c2C(F)(F)F)n1", "note": "[Example 041, [3-(4-Chlorophenyl)-1-[(6-methoxy-pyridin-2-yl)-methyl]-4-methyl-5-(trifluoromethyl)-1H-pyrrol-2-yl]-morpholin-4-yl-methanone]", "values": [
      {"measurement": "inhibition at 3 µM", "result": "> 95", "unit": "%"}
    ]},
    {"molecule": "CN(CC(C)(C)C)C(=O)c1c(-c2ccc(Cl)cc2)cc(C(F)(F)F)n1Cc1ccc(F)cn1", "note": "[Example 029, 3-(4-Chlorophenyl)-N-(2,2-dimethyl-propyl)-1-[(5-fluoro-pyridin-2-yl)-methyl]-N-methyl-5-(trifluoromethyl)-1H-pyrrole-2-carboxylic acid amide]", "values": [
      {"measurement": "inhibition at 3 µM", "result": "> 95", "unit": "%"}
    ]},
    {"molecule": "Cc1cc(Cn2c(C(=O)N(C)C(C)C)c(-c3ccc(Cl)cc3)c(C)c2C(F)(F)F)no1", "note": "[Example 068, 3-(4-Chlorophenyl)-N-isopropyl-N,4-dimethyl-1-[(5-methyl-isoxazol-3-yl)-methyl]-5-(trifluoromethyl)-1H-pyrrole-2-carboxylic acid amide]", "values": [
      {"measurement": "inhibition at 3 µM", "result": "> 95", "unit": "%"}
    ]},
    {"molecule": "Cc1nc(Cn2c(C(F)(F)F)cc(-c3ccc(Cl)cc3)c2C(=O)N(C)CC(C)(C)C)no1", "note": "[Example 012, 3-(4-Chlorophenyl)-N-(2,2-dimethyl-propyl)-N-methyl-1-[(5-methyl-[1,2,4]oxadiazol-3-yl)-methyl]-5-(trifluoromethyl)-1H-pyrrole-2-carboxylic acid amide]", "values": [
      {"measurement": "inhibition at 3 µM", "result": "> 95", "unit": "%"}
    ]}
  ]
}
